Laboratory results reported in publication PMC7088078 (Journal of Inorganic and Organometallic Polymers and …, 2008).
Counter-ions that a name gives are not always drawn.

How the values were obtained:
143 [1] = test: Chemotherapeutic activity; conditions: after 7 days, ± one SD
L929 [2] = test: Cytotoxicity assay; format: cell-based, mouse; conditions: trypan blue dye exclusion after 7 days, ± one SD
Vaccinia WR = format: cell-based, Vaccinia virus, strain WR
143 [3] = test: Cytotoxicity assay; format: cell-based, human; conditions: trypan blue dye exclusion after 7 days, ± one SD
Vero [4] = test: Cytotoxicity assay; format: cell-based, African green monkey; conditions: trypan blue dye exclusion after 7 days, ± one SD
HSV-1 [5] = test: Plaque reduction assay; format: cell-based, Herpes simplex virus 1, strain GHSV-UL46; conditions: HSV-1 in Vero cells; ± one SD
Vero [6] = test: Chemotherapeutic activity; conditions: after 7 days, ± one SD
BS-C-1 [7] = test: Cytotoxicity assay; format: cell-based, African green monkey; conditions: trypan blue dye exclusion after 7 days, ± one SD
[8] = system: reovirus, vaccinia, HSV-1, VZV; format: cell-based
L929 [9] = test: Chemotherapeutic activity; conditions: after 7 days, ± one SD
Reovirus ST3 = test: Plaque reduction assay; format: cell-based, reovirus serotype 3 (ST3) strain Dearing; conditions: Reovirus ST3 in L929 cells, ± one SD
VZV = format: cell-based, Varicella Zoster virus, strain Ellen; conditions: VZV in BS-C-1 cells; ± one SD
BS-C-1 [10] = test: Chemotherapeutic activity; conditions: after 7 days, ± one SD
HSV-1 [11] = conditions: cited from earlier work
ssRNA viruses = conditions: in words; cited from earlier work
vaccinia = conditions: cited from earlier work
[12] = system: L929, 143, Vero, BS-C-1 cell lines; test: Cell inhibition as a function of drug concentration; conditions: Fig. 1; cell line not specified

SMILES	GI50 (50% reduction in cell growth) 143 [1]	MCC, minimum cytotoxicity concentration that causes a reduction in cell viability >10% (L929 [2])	MIC, minimum inhibitory concentration required to reduce virus plaque number by 50% (Vaccinia WR)	MCC, minimum cytotoxicity concentration that causes a reduction in cell viability >10% 143 [3]	MCC, minimum cytotoxicity concentration that causes a reduction in cell viability >10% (Vero [4])	MIC, minimum inhibitory concentration required to reduce virus plaque number by 50% (HSV-1 [5])	GI50 (50% reduction in cell growth) (Vero [6])	MCC, minimum cytotoxicity concentration that causes a reduction in cell viability >10% (BS-C-1 [7])	inhibition of the tested viruses [8]	GI50 (50% reduction in cell growth) (L929 [9])	MIC, minimum inhibitory concentration required to reduce virus plaque number by 50% (Reovirus ST3)	MIC, minimum inhibitory concentration required to reduce virus plaque number by 50% (VZV)	GI50 (50% reduction in cell growth) (BS-C-1 [10])	MIC, minimum inhibitory concentration required to reduce virus plaque number by 50% (Reovirus ST3; listed as acyclovir)	concentration shown to inhibit HSV-1 (HSV-1 [11])	antiviral activity against ssRNA viruses (ssRNA viruses)	concentration shown to inhibit vaccinia (vaccinia)	GI50 [12]
[Cl][Pt-2]([Cl])([Cl])[Cl].[K+].[K+] [Compound K2PtCl4, potassium tetrachloroplatinate(II)]	175 ± 12.0 µg/mL	100 ± 9.0 µg/mL	>75 µg/mL	75 ± 6.0 µg/mL	100 ± 9.0 µg/mL	>100 µg/mL	200 ± 16.0 µg/mL	75 ± 6.0 µg/mL	little inhibition	200 ± 20.0 µg/mL	>100 µg/mL	>75 µg/mL	175 ± 20.0 µg/mL					
Nc1nc2c(ncn2COCCO)c(=O)[nH]1 [Acyclovir]		500 ± 42.0 µg/mL	>200 µg/mL	425 ± 32.0 µg/mL	400 ± 42.0 µg/mL	about 0.08 μg/mL		440 ± 39.0 µg/mL			>250 µg/mL			> 250 µg/mL				
CCN(CC)CCOc1ccc2c(c1)C(=O)c1cc(OCCN(CC)CC)ccc1-2 [Tilorone hydrochloride, 2,7-bis[2-(9-diethylamino)ethoxy]-9H-fluorene-9-one]															10 µg/mL	no antiviral activity	10 µg/mL	
N.N.[Cl][Pt][Cl] [Cisplatin]	50 ± 4.0 µg/mL		>25 µg/mL			>25 µg/mL	50 ± 4.0 µg/mL			75 ± 6.0 µg/mL	>25 µg/mL	>25 µg/mL	50 ± 3.0 µg/mL					about 50 μg/mL
